# According to patent US10463644B2, “Uses of sesquiterpene lactone compounds and their derivatives in drugs preparation” (ACCENDATECH, priority 2013, dated 2019):
# Legend:
# cancer cells = experiment: Survival rate of cancer cells after test compound is added (flow cytometry, Annexin V-FITC/PI, clinical specimen); format: cell-based, patient
# Text: (§1) Take fresh or cryopreserved clinical specimen (acute myelogenous leukemia (AML, marker is CD34^+/CD38^+), chronic myelogenous leukemia (CML, Ph+/CD34+/CXCR4+), chronic lymphocytic leukemia (CLL,CD133+/CD19−/CD38−), skin cancer (CD34+), breast cancer (CD44+/CD24−/ESA+), ovarian cancer (CD44+/CD117+), brain tumor (CD133+) prostate cancer (CD44+/CD24−), head-neck squamous cell carcinoma (CD44+), laryngeal cancer (CD133+), pancreatic cancer (ESA+/CD44+/CD24+), retinoblastoma (ABCG2/ALDH1), Children hepatoblastoma (CD34+/THY1+/c-kit+), liver cancer (CD133+), malignant melanoma (CD133+), colorectal cancer (EpCAM^high/CD44+), colon adenocarcinoma (CD44^high), glioma (ABCG-2/BCRP1), gastrointestinal tumor (ABCG-2/BCRP1), nasopharynx cancer (ABCG2), brain glioma (Dlk-1/Pref-1), gastric cancer (CD45+), lung adenocarcinoma (Sca-1/CD45-/Pecam-/CD34+), lung cancer (CD133+CD34+CD44+)) of patient. Take the acute myelogenous leukemia as the example, conduct density gradient centrifugation with Ficoll and take out the middle mononuclear cells, re-suspend it with serum-free IMDM after centrifuged. Adjust the concentration of cells into 1×10^6/mL and lay 24-well plate with 1 mL in each well, and then treat 18 hours with the compound to select with corresponding concentration. Collect the cells and centrifuge them at 1500 rps for 8 minutes, re-suspend the precipitation with […], mark the antibodies related to leukemia stem cell, avoid light to incubate 30 minutes at room temperature and then centrifuge it at 1500 rps, then wash away the unbound antibody CD34^+CD38^+. Re-suspend it with 100 μl 1× Binding Buffer and add respectively 5 μl Annexin V-FITC and PI, then avoid light to incubate 15 minutes before add 200 μl 1× Binding Buffer, then use flow cytometry to examine the marked apoptosis within one hour.
# normal cells = experiment: Survival rate of normal cells after test compound is added (flow cytometry, Annexin V-FITC/PI); format: cell-based
# Text: as §1
smiles,measurement,setting,value
CN(C)C[C@@H]1C(=O)O[C@H]2[C@H]1CCC1(CC1)[C@@H]1CCC3(CC3)[C@H]21.Cl [Compound 28],Survival rate (%) All cells (Stem cells and ordinary cells),"cancer cells; AML, 10.0 μM",94%
same,Survival rate (%) All cells (Stem cells and ordinary cells),"cancer cells; AML, 20.0 μM",87%
same,Survival rate (%) All cells (Stem cells and ordinary cells),"cancer cells; Brain glioma, 10.0 μM",89%
same,Survival rate (%) All cells (Stem cells and ordinary cells),"cancer cells; Brain glioma, 20.0 μM",86%
same,Survival rate (%) All cells (Stem cells and ordinary cells),"cancer cells; Brain tumor, 10.0 μM",91%
same,Survival rate (%) All cells (Stem cells and ordinary cells),"cancer cells; Brain tumor, 20.0 μM",87%
same,Survival rate (%) All cells (Stem cells and ordinary cells),"cancer cells; Breast cancer, 10.0 μM",87%
same,Survival rate (%) All cells (Stem cells and ordinary cells),"cancer cells; Breast cancer, 20.0 μM",83%
same,Survival rate (%) All cells (Stem cells and ordinary cells),"cancer cells; CLL, 10.0 μM",91%
same,Survival rate (%) All cells (Stem cells and ordinary cells),"cancer cells; CLL, 20.0 μM",87%
same,Survival rate (%) All cells (Stem cells and ordinary cells),"cancer cells; CML, 10.0 μM",92%
same,Survival rate (%) All cells (Stem cells and ordinary cells),"cancer cells; CML, 20.0 μM",89%
same,Survival rate (%) All cells (Stem cells and ordinary cells),"cancer cells; Children hepatoblastoma, 10.0 μM",92%
same,Survival rate (%) All cells (Stem cells and ordinary cells),"cancer cells; Children hepatoblastoma, 20.0 μM",89%
same,Survival rate (%) All cells (Stem cells and ordinary cells),"cancer cells; Colon adenocarcinoma, 10.0 μM",88%
same,Survival rate (%) All cells (Stem cells and ordinary cells),"cancer cells; Colon adenocarcinoma, 20.0 μM",85%
same,Survival rate (%) All cells (Stem cells and ordinary cells),"cancer cells; Colorectal cancer, 10.0 μM",87%
same,Survival rate (%) All cells (Stem cells and ordinary cells),"cancer cells; Colorectal cancer, 20.0 μM",83%
same,Survival rate (%) All cells (Stem cells and ordinary cells),"cancer cells; Gastric cancer, 10.0 μM",88%
same,Survival rate (%) All cells (Stem cells and ordinary cells),"cancer cells; Gastric cancer, 20.0 μM",81%
same,Survival rate (%) All cells (Stem cells and ordinary cells),"cancer cells; Gastrointestinal tumor, 10.0 μM",88%
same,Survival rate (%) All cells (Stem cells and ordinary cells),"cancer cells; Gastrointestinal tumor, 20.0 μM",89%
same,Survival rate (%) All cells (Stem cells and ordinary cells),"cancer cells; Glioma, 10.0 μM",93%
same,Survival rate (%) All cells (Stem cells and ordinary cells),"cancer cells; Glioma, 20.0 μM",86%
same,Survival rate (%) All cells (Stem cells and ordinary cells),"cancer cells; Head and neck squamous cell carcinomas, 10.0 μM",87%
same,Survival rate (%) All cells (Stem cells and ordinary cells),"cancer cells; Head and neck squamous cell carcinomas, 20.0 μM",83%
same,Survival rate (%) All cells (Stem cells and ordinary cells),"cancer cells; Laryngeal cancer, 10.0 μM",92%
same,Survival rate (%) All cells (Stem cells and ordinary cells),"cancer cells; Laryngeal cancer, 20.0 μM",89%
same,Survival rate (%) All cells (Stem cells and ordinary cells),"cancer cells; Liver cancer, 10.0 μM",91%
same,Survival rate (%) All cells (Stem cells and ordinary cells),"cancer cells; Liver cancer, 20.0 μM",87%
same,Survival rate (%) All cells (Stem cells and ordinary cells),"cancer cells; Lung adenocarcinoma, 10.0 μM",91%
same,Survival rate (%) All cells (Stem cells and ordinary cells),"cancer cells; Lung adenocarcinoma, 20.0 μM",89%
same,Survival rate (%) All cells (Stem cells and ordinary cells),"cancer cells; Lung cancer, 10.0 μM",94%
same,Survival rate (%) All cells (Stem cells and ordinary cells),"cancer cells; Lung cancer, 20.0 μM",87%
same,Survival rate (%) All cells (Stem cells and ordinary cells),"cancer cells; Malignant melanoma, 10.0 μM",91%
same,Survival rate (%) All cells (Stem cells and ordinary cells),"cancer cells; Malignant melanoma, 20.0 μM",88%
same,Survival rate (%) All cells (Stem cells and ordinary cells),"cancer cells; Nasopharynx cancer, 10.0 μM",92%
same,Survival rate (%) All cells (Stem cells and ordinary cells),"cancer cells; Nasopharynx cancer, 20.0 μM",89%
same,Survival rate (%) All cells (Stem cells and ordinary cells),"cancer cells; Ovarian cancer, 10.0 μM",88%
same,Survival rate (%) All cells (Stem cells and ordinary cells),"cancer cells; Ovarian cancer, 20.0 μM",85%
same,Survival rate (%) All cells (Stem cells and ordinary cells),"cancer cells; Pancreatic cancer, 10.0 μM",93%
same,Survival rate (%) All cells (Stem cells and ordinary cells),"cancer cells; Pancreatic cancer, 20.0 μM",92%
same,Survival rate (%) All cells (Stem cells and ordinary cells),"cancer cells; Prostate cancer, 10.0 μM",91%
same,Survival rate (%) All cells (Stem cells and ordinary cells),"cancer cells; Prostate cancer, 20.0 μM",88%
same,Survival rate (%) All cells (Stem cells and ordinary cells),"cancer cells; Retinoblastoma, 10.0 μM",90%
same,Survival rate (%) All cells (Stem cells and ordinary cells),"cancer cells; Retinoblastoma, 20.0 μM",85%
same,Survival rate (%) All cells (Stem cells and ordinary cells),"cancer cells; Skin cancer, 10.0 μM",91%
same,Survival rate (%) All cells (Stem cells and ordinary cells),"cancer cells; Skin cancer, 20.0 μM",88%
same,Survival rate (%) All cells (Stem cells and ordinary cells),normal cells; 10.0 μM,96%
same,Survival rate (%) Stem cells,normal cells; 10.0 μM,94%
same,Survival rate (%) All cells (Stem cells and ordinary cells),normal cells; 20.0 μM,95%
same,Survival rate (%) Stem cells,normal cells; 20.0 μM,92%
